Measurements reported in PubChem BioAssay AID330 (DTP/NCI, 2004).
Where “and” joins values, the source holds several entries; their conditions need not be identical. Equal values may be shown once. Toxic doses and inconclusive results are not listed.

Tested on: P388 leukemia ip, CD2F1 mice, survival T/C
Experiment: NCI In Vivo Anticancer Drug Screen. Data for tumor model P388 Leukemia (intraperitoneal) in CD2F1 (CDF1) mice
Conditions: endpoint: median survival time, higher = longer survival
In short: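 Mice carrying the transplanted tumor received test compound or vehicle. Survival was recorded in each group, and the value is the treated-group measurement divided by that of the vehicle-treated control group.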

[1] = dose: 50.0 mg/kg/injection, schedule: Q01DX009 (ip), vehicle: saline with Tween-80
[2] = dose: 25.0 mg/kg/injection, schedule: Q01DX005 (ip), vehicle: saline with Tween-80
[3] = dose: 50.0 mg/kg/injection, schedule: Q01DX005 (ip), vehicle: saline with Tween-80
[4] = dose: 100.0 mg/kg/injection, schedule: Q01DX005 (ip), vehicle: saline with Tween-80
[5] = dose: 25.0 mg/kg/injection, schedule: Q01DX009 (ip), vehicle: Klucel (hydroxypropylcellulose) (HPC)
[6] = dose: 50.0 mg/kg/injection, schedule: Q01DX009 (ip), vehicle: Klucel (hydroxypropylcellulose) (HPC)
[7] = dose: 12.5 mg/kg/injection, schedule: Q01DX009 (ip), vehicle: saline with Tween-80
[8] = dose: 25.0 mg/kg/injection, schedule: Q01DX009 (ip), vehicle: saline with Tween-80
[9] = dose: 6.25 mg/kg/injection, schedule: Q01DX009 (ip), vehicle: Klucel (hydroxypropylcellulose) (HPC)
[10] = dose: 50.0 mg/kg/injection, schedule: Q01DX005 (ip), vehicle: Klucel (hydroxypropylcellulose) (HPC)
[11] = dose: 100.0 mg/kg/injection, schedule: Q01DX005 (ip), vehicle: Klucel (hydroxypropylcellulose) (HPC)
[12] = dose: 200.0 mg/kg/injection, schedule: Q01DX005 (ip), vehicle: Klucel (hydroxypropylcellulose) (HPC)
[13] = dose: 60.0 mg/kg/injection, schedule: Q01DX005 (ip), vehicle: saline with Tween-80
[14] = dose: 120.0 mg/kg/injection, schedule: Q01DX005 (ip), vehicle: saline with Tween-80
[15] = dose: 240.0 mg/kg/injection, schedule: Q01DX005 (ip), vehicle: saline with Tween-80
[16] = dose: 50.0 mg/kg/injection, schedule: Q01DX005 (ip), vehicle: saline
[17] = dose: 100.0 mg/kg/injection, schedule: Q01DX005 (ip), vehicle: saline

## Nc1nc2ncc(CNc3ccc(C(=O)NC(CCC(=O)O)C(=O)O)cc3)nc2c(=O)[nH]1 (stereo not given)
dose: 6.25 mg/kg/injection, schedule: Q01DX009 (ip), vehicle: saline
  T/C: 103 % of control
dose: 12.5 mg/kg/injection, schedule: Q01DX009 (ip), vehicle: saline
  T/C: 99 % of control and 98 % of control
dose: 25.0 mg/kg/injection, schedule: Q01DX009 (ip), vehicle: saline
  T/C: 99 % of control and 96 % of control
dose: 45.0 mg/kg/injection, schedule: Q04DX003 (ip), vehicle: saline
  T/C: 103 % of control
[1]
  T/C: 108 % of control
dose: 50.0 mg/kg/injection, schedule: Q01DX009 (ip), vehicle: saline
  T/C: 101 % of control and 103 % of control
dose: 90.0 mg/kg/injection, schedule: Q04DX003 (ip), vehicle: saline
  T/C: 61 % of control
dose: 100.0 mg/kg/injection, schedule: Q01DX009 (ip), vehicle: saline
  T/C: 98 % of control
dose: 180.0 mg/kg/injection, schedule: Q04DX003 (ip), vehicle: saline
  T/C: 40 % of control

## CNC(=O)OCc1c(COC(=O)NC)c(-c2ccccc2)n(-c2ccccc2)c1C
dose: 12.5 mg/kg/injection, schedule: Q01DX005 (ip), vehicle: saline with Tween-80
  T/C: 150 % of control
[2]
  T/C: 169 % of control
[3]
  T/C: 157 % of control and 176 % of control
[4]
  T/C: 118 % of control

## O=[N+]([O-])c1csc([N+](=O)[O-])c1
dose: 9.37 mg/kg/injection, schedule: Q01DX009 (ip), vehicle: saline with Tween-80
  T/C: 109 % of control
dose: 18.75 mg/kg/injection, schedule: Q01DX009 (ip), vehicle: saline with Tween-80
  T/C: 118 % of control
dose: 37.5 mg/kg/injection, schedule: Q01DX009 (ip), vehicle: saline with Tween-80
  T/C: 122 % of control
dose: 75.0 mg/kg/injection, schedule: Q04DX003 (ip), vehicle: saline with Tween-80
  T/C: 100 % of control
dose: 150.0 mg/kg/injection, schedule: Q04DX003 (ip), vehicle: saline with Tween-80
  T/C: 100 % of control
dose: 300.0 mg/kg/injection, schedule: Q04DX003 (ip), vehicle: saline with Tween-80
  T/C: 109 % of control

## C=C(C(C)=O)c1ccccc1
[5]
  T/C: 100 % of control
[6]
  T/C: 98 % of control
dose: 100.0 mg/kg/injection, schedule: Q01DX009 (ip), vehicle: Klucel (hydroxypropylcellulose) (HPC)
  T/C: 100 % of control
dose: 200.0 mg/kg/injection, schedule: Q01DX009 (ip), vehicle: Klucel (hydroxypropylcellulose) (HPC)
  T/C: 107 % of control
dose: 400.0 mg/kg/injection, schedule: Q01DX009 (ip), vehicle: Klucel (hydroxypropylcellulose) (HPC)
  T/C: 107 % of control

## C1CC[N-]CC1.CC(=O)Nc1[c-]cccc1.CC(=O)O.[Pd+2]
[2]
  T/C: 112 % of control and 95 % of control
[3]
  T/C: 107 % of control and 114 % of control and 119 % of control
[4]
  T/C: 111 % of control

## N#Cc1c2c(c(O)[nH]c1=O)C(=O)c1ccccc1-2
[7]
  T/C: 115 % of control
[8]
  T/C: 104 % of control
[1]
  T/C: 93 % of control

## C#CC1(O)CC2c3ccc(OC)cc3CCC2(C)C1 (stereo not given)
[9]
  T/C: 117 % of control
dose: 12.5 mg/kg/injection, schedule: Q01DX009 (ip), vehicle: Klucel (hydroxypropylcellulose) (HPC)
  T/C: 105 % of control
[5]
  T/C: 112 % of control

## COc1ccc(C(OCC2CC3CCC2C3)OCC2CC3CCC2C3)cc1 (stereo not given)
dose: 12.5 mg/kg/injection, schedule: Q01DX009 (ip), vehicle: other
  T/C: 114 % of control
dose: 25.0 mg/kg/injection, schedule: Q01DX009 (ip), vehicle: other
  T/C: 111 % of control
dose: 50.0 mg/kg/injection, schedule: Q01DX009 (ip), vehicle: other
  T/C: 110 % of control
dose: 100.0 mg/kg/injection, schedule: Q01DX009 (ip), vehicle: other
  T/C: 111 % of control
dose: 200.0 mg/kg/injection, schedule: Q01DX009 (ip), vehicle: other
  T/C: 111 % of control

## CC(=O)N/C(=C/c1ccccc1)C(=O)N/C(=C/c1ccccc1)C(=O)O
[10]
  T/C: 101 % of control
[11]
  T/C: 99 % of control
[12]
  T/C: 91 % of control

## OCC1OC(n2cnc3c(=S)nc[nH]c32)CC1O (stereo not given)
dose: 167.0 mg/kg/injection, schedule: Q01DX009 (ip), vehicle: saline with Tween-80
  T/C: 100 % of control
dose: 267.0 mg/kg/injection, schedule: Q01DX009 (ip), vehicle: saline with Tween-80
  T/C: 113 % of control

## CCn1c(Cl)c(/C=N/NC(N)=S)c2cccc(/C=N\NC(N)=S)c21
dose: 100.0 mg/kg/injection, schedule: Q01DX001 (ip), vehicle: Klucel (hydroxypropylcellulose) (HPC)
  T/C: 97 % of control
dose: 200.0 mg/kg/injection, schedule: Q01DX001 (ip), vehicle: Klucel (hydroxypropylcellulose) (HPC)
  T/C: 87 % of control
dose: 400.0 mg/kg/injection, schedule: Q01DX001 (ip), vehicle: Klucel (hydroxypropylcellulose) (HPC)
  T/C: 97 % of control

## NC(=O)c1cc2c(oc1=O)-c1ccccc1N(C=O)C2
[13]
  T/C: 100 % of control
[14]
  T/C: 95 % of control
[15]
  T/C: 95 % of control

## Clc1ccc2nc(Cl)c3ccccc3c2c1
dose: 0.78 mg/kg/injection, schedule: Q01DX009 (ip), vehicle: Klucel (hydroxypropylcellulose) (HPC)
  T/C: 88 % of control and 93 % of control
dose: 1.56 mg/kg/injection, schedule: Q01DX009 (ip), vehicle: Klucel (hydroxypropylcellulose) (HPC)
  T/C: 87 % of control and 94 % of control
dose: 3.13 mg/kg/injection, schedule: Q01DX009 (ip), vehicle: Klucel (hydroxypropylcellulose) (HPC)
  T/C: 94 % of control
[9]
  T/C: 120 % of control and 89 % of control and 95 % of control
[5]
  T/C: 89 % of control
[6]
  T/C: 87 % of control

## NC(=O)NC(CC(=O)O)C(=O)O (stereo not given)
[1]
  T/C: 92 % of control
dose: 100.0 mg/kg/injection, schedule: Q01DX009 (ip), vehicle: saline with Tween-80
  T/C: 101 % of control
dose: 200.0 mg/kg/injection, schedule: Q01DX009 (ip), vehicle: saline with Tween-80
  T/C: 106 % of control

## CN(C)CCN1C(=O)C2C3CCC(C)(O3)C2C1=O (stereo not given)
[16]
  T/C: 99 % of control
[17]
  T/C: 104 % of control
dose: 200.0 mg/kg/injection, schedule: Q01DX005 (ip), vehicle: saline
  T/C: 103 % of control

## COc1cc(-c2ccc(NC(=O)CC(C)=O)c(OC)c2)ccc1NC(=O)CC(C)=O
dose: 100.0 mg/kg/injection, schedule: Q04DX003 (ip), vehicle: saline with Tween-80
  T/C: 100 % of control
dose: 200.0 mg/kg/injection, schedule: Q04DX003 (ip), vehicle: saline with Tween-80
  T/C: 100 % of control
dose: 400.0 mg/kg/injection, schedule: Q04DX003 (ip), vehicle: saline with Tween-80
  T/C: 90 % of control

## COC(=O)c1[nH]c(=O)c(C#N)c(C(=O)OC)c1-c1ccccn1
[13]
  T/C: 93 % of control
[14]
  T/C: 92 % of control
[15]
  T/C: 92 % of control

## Cc1ccc(S(=O)(=O)N/N=C2\COC(C)C2)cc1 (stereo not given)
[3]
  T/C: 93 % of control
[4]
  T/C: 91 % of control

## O=C1CC(c2ccccc2)=NN1c1ccccc1
[10]
  T/C: 101 % of control
[11]
  T/C: 99 % of control
[12]
  T/C: 95 % of control

## Cc1ccc(C(=O)c2ccc[n+](C)c2)cc1
[16]
  T/C: 100 % of control
[17]
  T/C: 101 % of control

## CCCOP(=S)(N1CC1(C)C)N1CC1(C)C (stereo not given)
[7]
  T/C: 104 % of control
[8]
  T/C: 113 % of control
dose: 150.0 mg/kg/injection, schedule: Q01DX009 (ip), vehicle: saline with Tween-80
  T/C: 155 % of control

## COc1ccc2c3c1OC1c4[nH]ncc4C[C@H]4[C@@H](C2)N(C)CC[C@]314 (stereo not given in full)
dose: 100.0 mg/kg/injection, schedule: Q04DX002 (ip), vehicle: saline with Tween-80
  T/C: 108 % of control
dose: 200.0 mg/kg/injection, schedule: Q04DX002 (ip), vehicle: saline with Tween-80
  T/C: 99 % of control

## O=C(NCCNC(=O)c1cc(Cl)cc(Cl)c1O)c1cc(Cl)cc(Cl)c1O
dose: 15.0 mg/kg/injection, schedule: Q01DX005 (ip), vehicle: saline with Tween-80
  T/C: 92 % of control
dose: 30.0 mg/kg/injection, schedule: Q01DX005 (ip), vehicle: saline with Tween-80
  T/C: 92 % of control
[13]
  T/C: 87 % of control and 89 % of control

## Cc1[nH]nc2c(Cc3ccc([N+](=O)[O-])cc3)n[nH]c(=O)c12
dose: 100.0 mg/kg/injection, schedule: Q04DX002 (ip), vehicle: Klucel (hydroxypropylcellulose) (HPC)
  T/C: 92 % of control
dose: 200.0 mg/kg/injection, schedule: Q04DX002 (ip), vehicle: Klucel (hydroxypropylcellulose) (HPC)
  T/C: 87 % of control
dose: 400.0 mg/kg/injection, schedule: Q04DX002 (ip), vehicle: Klucel (hydroxypropylcellulose) (HPC)
  T/C: 92 % of control
